Assay results taken from patent US20220009914A1, “Analogs of Nitrofuran Antibiotics to Combat Resistance” (The Trustees of Indiana University, priority 2020, published 2022).
Like-named read-outs stand apart in the source and are kept apart here.

What was measured:
native MDH = molecular target: T1, native MDH (Sus scrofa, UniProt P00346); assay: native MDH activity counter-screen in the presence of E. coli NfsB nitroreductase; assay type: biochemical, pig
T1 sequence (P00346 25-338): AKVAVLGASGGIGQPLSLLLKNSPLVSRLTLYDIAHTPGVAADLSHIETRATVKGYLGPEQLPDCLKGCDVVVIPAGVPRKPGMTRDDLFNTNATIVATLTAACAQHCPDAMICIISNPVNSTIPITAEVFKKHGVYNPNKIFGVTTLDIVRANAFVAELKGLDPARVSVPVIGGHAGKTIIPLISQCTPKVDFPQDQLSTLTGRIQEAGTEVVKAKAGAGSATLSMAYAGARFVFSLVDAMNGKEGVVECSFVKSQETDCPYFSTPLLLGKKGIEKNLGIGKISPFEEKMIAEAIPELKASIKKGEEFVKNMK
Procedure: Evaluating compounds for inhibition in the GroEL/ES-mediated dMDH refolding assay and native MDH activity counter-screen in the presence of E. coli NfsB nitroreductase. These assays were performed nearly identically to those mentioned above, but with a couple distinct modifications. […] The remainder of the assay was conducted as in our standard protocol where no NfsB nitroreductase was present. […] Results presented represent the averages of IC50 values obtained from at least four replicates in each assay.

[1] = test system: NEB 5-alpha Escherichia coli; assay: bacterial proliferation assay, E. coli; assay type: cell-based; conditions: for EC50: read-out: Bacterial Proliferation EC50 E. coli
Procedure: All compounds were evaluated for inhibiting the proliferation of E. coli and each of the ESKAPE bacteria. Results presented represent the averages of EC50 values obtained from at least four replicates. Evaluating compounds for inhibition of bacterial cell proliferation.
Growth Media: E. coli were grown with LB medium and all ESKAPE bacteria were grown in Brain Heart Infusion (BHI) medium (Becton, Dickinson and Company), with all liquid cultures supplemented with 25 mg/L Ca^2+ and 12.5 mg/L Mg^2+ to mimic physiological free concentrations of these cations. A 10 mg/mL Ca^2+ stock solution was prepared by dissolving 1.84 g of CaCl2.2H2O in 50 mL of deionized water, and a 10 mg/mL Mg^2+ stock solution was prepared by dissolving 4.18 g of MgCl2.6H2O in 50 mL deionized water—filter sterilized using 0.2 μm cellulose-acetate filters. 2.5 mL of the sterile 10 mg/mL Ca^2+ stock and 1.25 mL of the sterile 10 mg/mL Mg^2+ stock solutions were added per 1 L of autoclaved LB or BHI media to obtain 25 mg/L Ca^2+ and 12.5 mg/L Mg^2+ ions, respectively.
General Assay Protocol: Stock bacterial cultures were streaked onto LB or BHI agar plates and grown overnight at 37° C. Fresh aliquots of cation supplemented media were inoculated with single bacterial colonies and the cultures were grown overnight at 37° C. with shaking (240 rpm). The following morning, cultures were diluted 10-fold into fresh media and grown at 37° C. until bacteria had reached mid-log phase growth (OD600˜0.4-0.6). The cultures were then diluted into fresh media to achieve final OD600 readings of 0.017. Aliquots of these diluted cultures (30 μL) were added to clear, flat-bottom 384-well polystyrene plates that were previously stamped with 0.5 μL of test compounds in 20 μL of media (yielding initial OD600=0.01 bacterial cultures). All compounds were tested in dose-response with concentration ranges during the proliferation assays from 100 μM to 46 nM (3-fold dilution series). A second set of baseline control plates were prepared analogously, but without any bacteria added, to correct for possible compound absorbance and/or precipitation. […] Plates were then read at 600 nm using a Molecular Devices SpectraMax Plus384 microplate reader. […] Results presented represent the averages of EC50 values obtained from at least four replicates.
Evaluating analogs for inhibiting the growth of E. coli and the ESKAPE bacteria. Analogs were initially tested for antibacterial efficacy against representative strains of antibiotic-sensitive E. coli and the ESKAPE bacteria. To determine compound efficacy, bacterial proliferation assays were carried out in liquid media culture supplemented with physiological concentrations of free calcium and magnesium cations. For these assays, bacterial cultures (OD600=0.01) were exposed to test compounds in 8-point, 3-fold dilution series (100 μM to 46 nM concentration range), in 384-well plates. After addition of compounds to cultures, the plates were sealed with Breathe-Easy gas permeable membranes and allowed to grow to mid-log phase (OD600˜0.4-0.6), whereupon final OD600 readings were taken to assess for bacterial growth and inhibition.

FHC colon cells = assay: Alamar Blue-based viability assay, human colon cells; conditions: for CC50: human, 48 h
Procedure: (§1) Evaluating compound effects on the viability of human colon and small intestine cells. […] Evaluating compound effects on the viability of human colon and small intestine cells. Evaluation of compound cytotoxicities to FHC colon and FHs 74 Int small intestine cells were performed using Alamar Blue-based viability assays. […] FHs 74 Int cells were maintained in Hybri-care medium (ATCC 46-X) supplemented with 30 ng/mL recombinant epidermal growth factor (EGF) and 10% FBS (Midwest Scientific, USDAFBS).

[2] = test system: FHs 74 Int small intestine cells; assay: in vitro; conditions: for CC50: human, 48 h
Procedure: as §1

NEB 5-alpha E. coli = assay: microbe, parasite or virus in culture; assay type: cell-based, Escherichia coli; conditions: for resistance of the maximally-resistant strain to its inhibitor after passaging without compound: 4×12 h serial passages without test compounds, then 24 h proliferation assay; for EC50: Escherichia coli, read-out: EC50 plateau after intermediate resistance
Procedure: Evaluating the ability of E. coli to generate resistance to lead inhibitors. […] NEB 5-alpha E. coli bacteria were streaked onto an LB agar plate and grown overnight at 37° C. […] The overnight cultures were then sub-cultured (10× dilution) into fresh media solutions and grown at 37° C. to mid-log phase, then diluted into fresh media to achieve two separate cultures with final OD600 readings of 0.01. […] Test compounds were evaluated in duplicate with concentration ranges during the resistance assay from 100 μM to 48.8 nM, 2-fold dilution series. […] OD600 readings were taken at the 24 h time point to monitor for bacterial growth. A second baseline control plate was prepared analogously, without any bacteria added, to correct for possible compound absorbance and/or precipitation. For inoculations on subsequent days, bacteria from the wells with the highest test compound concentration where the OD600 was >0.2, were sub-cultured in 5 mL of fresh media at 37° C. until mid-log phase growth was reached. Separate cultures were maintained from this point forward for each of the compound replicates—i.e. 6 cultures continually propagated. The bacteria were then diluted into fresh media to OD600 of 0.01 and the bacteria were propagated again as described above.

[3] = test system: nitrofurantoin resistant E. coli; assay type: cell-based, Escherichia coli

Row | SMILES | IC50 (native MDH) [µM] | inhibition of E. coli proliferation in words [1] | EC50 ([1]; Escherichia coli) [µM] | SI (CC50/EC50) Colon (FHC colon cells; CC50 colon cells over EC50 E. coli proliferation) | CC50 (FHC colon cells) [µM] | cytotoxicity to human cells in words [2] | SI (CC50/EC50) Intestine ([2]; CC50 intestine cells over EC50 E. coli proliferation) | CC50 [2] [µM] | resistance of the maximally-resistant strain to its inhibitor after passaging without compound (NEB 5-alpha E. coli) | EC50 (NEB 5-alpha E. coli) [µM] | response of nitrofurantoin-resistant strains to the other inhibitor [3] | EC50 [1] [µM] | SI (CC50/EC50) Colon (FHC colon cells) | SI (CC50/EC50) Intestine [2]
1 | O=C(N/N=C/c1ccc([N+](=O)[O-])o1)c1ccc(O)cc1 [Nifuroxazide, reference compound] | > 56 | potent inhibitors | 0.87 | 70 | 61 | low to no cytotoxicity | 91 | 79 | still resistant | 20 to 40 | still sensitive |  |  | 
2 | O=C(N/N=C/c1ccc([N+](=O)[O-])o1)c1ccc(Cl)s1 [Compound 17, 5-chloro-N′-((5-nitrofuran-2-yl)methylene)thiophene-2-carbohydrazide] |  | potent inhibitors |  |  | 53 | low to no cytotoxicity |  | 85 | still resistant | 20 to 40 | still sensitive | 0.45 | 119 | 190
